Test results from patent US20250215039A1, “NUCLEOSIDES FOR TREATING CANCER” (PRIMEFOUR THERAPEUTICS, INC., priority 2022, published 2025).
Like-named read-outs stand apart in the source and are kept apart here.

System: cancer cell lines
Assay: Cancer cell proliferation activity (CellTiterGlo, 72 h)
Assay type: cell-based
Conditions: 72 h, 72 h, read-out: IC50 cell proliferation
Procedure, shortened: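 Readout is CellTiterGlo luminescence after 72 h compound exposure (0.1% DMSO final), started one day post-seeding, at 37 °C.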

Nc1nc(F)nc2c1ncn2[C@H]1C[C@H](O)[C@@H](CO)O1 [compound 171, (2R,3S,5R)-5-(6-amino-2-fluoro-9H-purin-9-yl)-2-(hydroxymethyl)tetrahydrofuran-3-ol]
IC50 (5637 (bladder)): 950 nM
IC50 (CLS439 (bladder)): 2640 nM
IC50 (HS729 (muscle)): 440 nM
IC50 (J82 (bladder)): 1810 nM
IC50 (JAR (placenta)): 1600 nM
IC50 (MT3 (breast)): 230 nM
IC50 (PANCI (pancreas)): 5060 nM
IC50 (PC3 (prostate)): 280 nM
IC50 (RD (muscle)): 960 nM
IC50 (T24 (bladder)): 560 nM
IC50 (Homo sapiens, 22Rv1, 72 h, 22RV1 (prostate)): 2890 nM
IC50 (Homo sapiens, 786-0, 72 h, 786O (kidney)): 1570 nM
IC50 (Homo sapiens, A204, 72 h, A204 (muscle)): 190 nM
IC50 (Homo sapiens, A549, 72 h, A549 (lung)): 1330 nM
IC50 (Homo sapiens, A673, 72 h, A673 (bone)): 2530 nM
IC50 (Homo sapiens, A2780, 72 h, A2780 (ovary)): 1670 nM
IC50 (Homo sapiens, A-375, 72 h, A375 (skin)): 570 nM
IC50 (Homo sapiens, A-431, 72 h, A431 (skin)): 1240 nM
IC50 (Homo sapiens, ACHN, ACHN (kidney)): 1050 nM
IC50 (Homo sapiens, ASPC1, 72 h, ASPC1 (pancreas)): 320 nM
IC50 (Homo sapiens, BT-20, 72 h, BT20 (breast)): 2120 nM
IC50 (Homo sapiens, BXPC-3, 72 h, BXPC3 (pancreas)): 430 nM
IC50 (Homo sapiens, C-33-A, C33A (endometrial)): 410 nM
IC50 (Homo sapiens, CAKI-1, 72 h, CAKI1 (kidney)): 130 nM
IC50 (Homo sapiens, COLO 205, 72 h, COLO205 (colon)): 420 nM
IC50 (Homo sapiens, COLO-678, 72 h, COLO678 (colon)): 630 nM
IC50 (Homo sapiens, Ca-Ski, CASKI (endometrial)): 990 nM
IC50 (Homo sapiens, Caco-2, 72 h, CACO2 (colon)): 3520 nM
IC50 (Homo sapiens, Calu-6, 72 h, CALU6 (lung)): 400 nM
IC50 (Homo sapiens, DLD-1, 72 h, DLD1 (colon)): 1030 nM
IC50 (Homo sapiens, DU-145, 72 h, DU145 (prostate)): 340 nM
IC50 (Homo sapiens, EFO-21, 72 h, EFO21 (ovary)): 460 nM
IC50 (Homo sapiens, EJ-28, 72 h, EJ28 (bladder)): 1060 nM
IC50 (Homo sapiens, Granta-519, 72 h, GRANTA-519 (hematological)): 680 nM
IC50 (Homo sapiens, HCT-15, 72 h, HCT15 (colon)): 2010 nM
IC50 (Homo sapiens, HCT-116, 72 h, HCT116 (colon)): 1030 nM
IC50 (Homo sapiens, HEK293, 72 h, HEK293 (kidney)): 3610 nM
IC50 (Homo sapiens, HL-60, 72 h, HL-60 (hematological)): 230 nM
IC50 (Homo sapiens, HT-29, 72 h, HT29 (colon)): 700 nM
IC50 (Homo sapiens, HT-1080, 72 h, HT1080 (connective tissue)): 2790 nM
IC50 (Homo sapiens, HeLa, HELA (endometrial)): 310 nM
IC50 (Homo sapiens, HepG2, 72 h, HEPG2 (liver)): 2750 nM
IC50 (Homo sapiens, Hs-578T, HS578T (breast)): 1640 nM
IC50 (Homo sapiens, IGROV-1, 72 h, IGROV1 (ovary)): 1280 nM
IC50 (Homo sapiens, IMR-90, 72 h, IMR90 (lung)): 540 nM
IC50 (Homo sapiens, JEG-3, 72 h, JEG3 (placenta)): 2570 nM
IC50 (Homo sapiens, JIMT-1, 72 h, JIMT1 (breast)): 180 nM
IC50 (Homo sapiens, K562, 72 h, K-562 (hematological)): 5680 nM
IC50 (Homo sapiens, Kasumi 1, 72 h, KASUMI-1 (hematological)): 60 nM
IC50 (Homo sapiens, L-363, 72 h, L-363 (hematological)): 920 nM
IC50 (Homo sapiens, LoVo, LOVO (colon)): 440 nM
IC50 (Homo sapiens, MCF7, 72 h, MCF7 (breast)): 3060 nM
IC50 (Homo sapiens, MDA-MB-231, 72 h, MDAMB231 (breast)): 160 nM
IC50 (Homo sapiens, MDA-MB-435, 72 h, MDAMB435 (skin)): 2470 nM
IC50 (Homo sapiens, MDA-MB-436, 72 h, MDAMB436 (breast)): 620 nM
IC50 (Homo sapiens, MDA-MB-468, 72 h, MDAMB468 (breast)): 1440 nM
IC50 (Homo sapiens, MG-63, 72 h, MG63 (bone)): 1630 nM
IC50 (Homo sapiens, MHH-ES-1, 72 h, MHHES1 (bone)): 460 nM
IC50 (Homo sapiens, MIA PaCa-2, 72 h, MIAPACA2 (pancreas)): 2950 nM
IC50 (Homo sapiens, MINO, MINO (hematological)): 40 nM
IC50 (Homo sapiens, MV4-11, 72 h, MV4-11 (hematological)): 270 nM
IC50 (Homo sapiens, NCI-H23, 72 h, NCI-H23 (lung)): 2040 nM
IC50 (Homo sapiens, NCI-H82, 72 h, NCIH82 (lung)): 1600 nM
IC50 (Homo sapiens, NCI-H292, 72 h, NCIH292 (lung)): 2330 nM
IC50 (Homo sapiens, NCI-H460, 72 h, NCIH460 (lung)): 1950 nM
IC50 (Homo sapiens, OVCAR-3, 72 h, OVCAR3 (ovary)): 350 nM
IC50 (Homo sapiens, OVCAR-4, 72 h, OVCAR4 (ovary)): 1860 nM
IC50 (Homo sapiens, PLC-PRF-5, 72 h, PLCPRF5 (liver)): 2840 nM
IC50 (Homo sapiens, Panc1005, 72 h, PANC1005 (pancreas)): 660 nM
IC50 (Homo sapiens, Ramos, RAMOS (hematological)): 420 nM
IC50 (Homo sapiens, SAOS-2, 72 h, SAOS2 (bone)): 110 nM
IC50 (Homo sapiens, SF-268, 72 h, SF268 (brain)): 3020 nM
IC50 (Homo sapiens, SF-295, 72 h, SF295 (brain)): 3580 nM
IC50 (Homo sapiens, SK-BR-3, 72 h, SKBR3 (breast)): 140 nM
IC50 (Homo sapiens, SK-HEP1, 72 h, SKHEP1 (liver)): 280 nM
IC50 (Homo sapiens, SK-LMS-1, 72 h, SKLMS1 (uterus)): 3020 nM
IC50 (Homo sapiens, SK-MEL-5, 72 h, SKMEL5 (skin; SKMELS [sic] in Table 9E)): 1970 nM
IC50 (Homo sapiens, SK-MEL-28, 72 h, SKMEL28 (skin)): 980 nM
IC50 (Homo sapiens, SK-N-AS, SKNAS (brain)): 2550 nM
IC50 (Homo sapiens, SK-N-SH, SKNSH (brain)): 2260 nM
IC50 (Homo sapiens, SK-OV-3, 72 h, SKOV3 (ovary)): 510 nM
IC50 (Homo sapiens, SNB-75, 72 h, SNB75 (brain)): 1470 nM
IC50 (Homo sapiens, SU-DHL10, 72 h, SU-DHL-10 (hematological)): 730 nM
IC50 (Homo sapiens, SU-DHL-6, 72 h, SU-DHL-6 (hematological)): 980 nM
IC50 (Homo sapiens, SW-620, 72 h, SW620 (colon)): 680 nM
IC50 (Homo sapiens, TE-671, 72 h, TE671 (muscle)): 780 nM
IC50 (Homo sapiens, THP-1, 72 h, THP-1 (hematological)): 130 nM
IC50 (Homo sapiens, U2OS, U20S (bone; U2OS in Table 9E)): 960 nM
IC50 (Homo sapiens, U-87 MG, U87MG (brain)): 620 nM
IC50 (Homo sapiens, UMUC3, 72 h, UMUC3 (bladder)): 970 nM
IC50 (Homo sapiens, UO-31, 72 h, UO31 (kidney)): 420 nM
IC50 (Homo sapiens, WSU-NHL, WSU-NHL (hematological)): 340 nM
IC50 (NCI-H358M, NCIH358M (lung)): 60 nM
IC50 (PBMC, PBMC (hematological)): 150 nM
IC50 (RD-ES, RDES (bone)): 820 nM
